Experimental data taken from patent US20240301003A1 (NoNO Inc., priority 2021, published 2024).
One block for each compound: values may come before it. Where a SMILES comes first, the peptide text is derived from it. Where no end group is shown, it is not given here. [ ]: non-standard residue; d: D form.

Assays:
[1] = target: PSD95PDZ2 (Homo sapiens, UniProt P78352); assay: Competitive ELISA with biotinylated-NA-1; details: PSD-95 domain 2, FIG. 12
[2] = Pharmacokinetic analysis in rats (subcutaneous, pulmonary instillation, intravenous, intramuscular), HPLC
[3] = target: T1, plasmin (Homo sapiens, UniProt P00747); assay: in vitro; details: isolated enzyme plasmin
T1 sequence (P00747 581-810 limits assumed, species assumed): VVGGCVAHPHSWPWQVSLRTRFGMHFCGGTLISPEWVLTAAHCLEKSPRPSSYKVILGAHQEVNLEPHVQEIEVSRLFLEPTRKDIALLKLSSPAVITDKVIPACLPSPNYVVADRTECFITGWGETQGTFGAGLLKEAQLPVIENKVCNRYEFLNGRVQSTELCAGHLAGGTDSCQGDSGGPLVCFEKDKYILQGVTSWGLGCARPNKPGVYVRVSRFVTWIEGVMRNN
T1 sequence (P00747 97-580 partner limits assumed, species assumed): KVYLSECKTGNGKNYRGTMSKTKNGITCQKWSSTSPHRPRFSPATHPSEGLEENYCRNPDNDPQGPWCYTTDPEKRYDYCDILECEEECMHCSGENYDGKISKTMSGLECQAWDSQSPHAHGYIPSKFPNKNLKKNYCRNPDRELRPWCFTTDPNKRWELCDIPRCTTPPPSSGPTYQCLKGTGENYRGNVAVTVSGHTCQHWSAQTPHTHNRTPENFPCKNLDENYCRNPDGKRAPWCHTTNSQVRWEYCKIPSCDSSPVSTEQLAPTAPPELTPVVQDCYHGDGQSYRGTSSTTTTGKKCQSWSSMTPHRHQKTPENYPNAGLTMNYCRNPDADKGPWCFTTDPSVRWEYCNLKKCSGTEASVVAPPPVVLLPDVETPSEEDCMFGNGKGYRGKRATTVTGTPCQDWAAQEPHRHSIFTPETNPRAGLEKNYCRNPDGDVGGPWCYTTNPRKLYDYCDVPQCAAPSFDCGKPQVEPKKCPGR

[4] = target: T1, plasmin; assay: Plasmin sensitivity: peptides in PBS challenged with 10 ug/ml plasmin, HPLC; details: 10 ug/mL plasmin, 45 minutes (FIG. 29)
[5] = tested on: histamine release; assay: Histamine release in rats, plasma histamine ELISA; details: co-administration of lodoxamide (0.6 mg/kg)
[6] = MTD studies and renal toxicity in rats (creatinine, BUN); details: rats, addition of sodium benzoate (NA-3+SB)
[7] = tested on: plasmin; assay: 10 ug/mL plasmin; details: up to 45 minutes
[8] = tested on: plasmin; assay: peptides in PBS challenged with 10 ug/ml plasmin; details: 37 C, up to 30 minutes

Chain of PSD95PDZ2 (P78352 160-246 limits assumed): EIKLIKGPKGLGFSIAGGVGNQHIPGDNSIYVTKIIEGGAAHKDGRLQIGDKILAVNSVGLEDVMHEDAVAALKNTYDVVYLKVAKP

Compound: CC[C@@H](C)[C@@H](NC(=O)[C@@H](CO)NC(=O)[C@@H](CO)NC(=O)[C@@H](CC(C)C)NC(=O)[C@@H](CCCCN)NC(=O)[C@@H](CCCNC(=N)N)NC(=O)[C@@H](CCCNC(=N)N)NC(=O)[C@@H](CCCNC(=N)N)NC(=O)[C@@H](CCC(N)=O)NC(=O)[C@@H](CCCNC(=N)N)NC(=O)[C@@H](CCCNC(=N)N)NC(=O)[C@@H](CCCCN)NC(=O)[C@@H](CCCCN)NC(=O)[C@@H](CCCNC(=N)N)NC(=O)CNC(=O)[C@H](N)Cc1ccc(O)cc1)C(=O)N[C@H](CCC(=O)O)C(=O)N[C@H](CO)C(=O)N[C@H](CC(=O)O)C(=O)N[C@@H](C(=O)O)C(C)C [D-NA-1, ygrkkrrqrrrklssiesdv] (HELM PEPTIDE1{[dY].G.[dR].[dK].[dK].[dR].[dR].[dQ].[dR].[dR].[dR].[dK].[dL].[dS].[dS].[dI].[dE].[dS].[dD].[dV]}$$$$V2.0)
EC50 (compared between peptides) [1]: about ten-fold lower
plasma concentration and plasma exposure relative to intrapulmonary NA-1 ([2]; pulmonary instillation): higher plasma concentration and a greater plasma exposure
AUC compared with subcutaneous NA-1 ([2]; subcutaneous 25 mg/kg): increased Cmax and AUC relative to subcutaneous NA-1 but not to the same extent
Cmax compared with subcutaneous NA-1 ([2]; subcutaneous 25 mg/kg): increased Cmax and AUC relative to subcutaneous NA-1 but not to the same extent

remaining at 0.5 h, 65 ug/ml [3]: ~100%
Compound: CC[C@H](C)[C@H](NC(=O)[C@H](CO)NC(=O)[C@H](CO)NC(=O)[C@H](CC(C)C)NC(=O)[C@H](CCCCN)NC(=O)[C@@H](CCCNC(=N)N)NC(=O)[C@H](CCCNC(=N)N)NC(=O)[C@H](CCCNC(=N)N)NC(=O)[C@H](CCC(N)=O)NC(=O)[C@@H](CCCNC(=N)N)NC(=O)[C@H](CCCNC(=N)N)NC(=O)[C@H](CCCCN)NC(=O)[C@H](CCCCN)NC(=O)[C@@H](CCCNC(=N)N)NC(=O)CNC(=O)[C@@H](N)Cc1ccc(O)cc1)C(=O)N[C@@H](CCC(=O)O)C(=O)N[C@@H](CO)C(=O)N[C@@H](CC(=O)O)C(=O)N[C@H](C(=O)O)C(C)C [NA-4.4.1] (HELM PEPTIDE1{Y.G.[dR].K.K.R.[dR].Q.R.R.[dR].K.L.S.S.I.E.S.D.V}$$$$V2.0; N-terminus and C-terminus assumed)

remaining at 0.5 h, 65 ug/ml [3]: ~100%
Compound: CC[C@H](C)[C@H](NC(=O)[C@H](CO)NC(=O)[C@H](CO)NC(=O)[C@H](CC(C)C)NC(=O)[C@H](CCCCN)NC(=O)[C@@H](CCCNC(=N)N)NC(=O)[C@H](CCCNC(=N)N)NC(=O)[C@H](CCCNC(=N)N)NC(=O)[C@@H](CCC(N)=O)NC(=O)[C@H](CCCNC(=N)N)NC(=O)[C@H](CCCNC(=N)N)NC(=O)[C@@H](CCCCN)NC(=O)[C@H](CCCCN)NC(=O)[C@H](CCCNC(=N)N)NC(=O)CNC(=O)[C@@H](N)Cc1ccc(O)cc1)C(=O)N[C@@H](CCC(=O)O)C(=O)N[C@@H](CO)C(=O)N[C@@H](CC(=O)O)C(=O)N[C@H](C(=O)O)C(C)C [NA-411.4] (HELM PEPTIDE1{Y.G.R.K.[dK].R.R.[dQ].R.R.[dR].K.L.S.S.I.E.S.D.V}$$$$V2.0; N-terminus and C-terminus assumed)

Compound: CC[C@H](C)[C@H](NC(=O)[C@@H](CCCNC(=N)N)NC(=O)[C@H](CCCNC(=N)N)NC(=O)[C@@H](CCCNC(=N)N)NC(=O)[C@H](CCC(N)=O)NC(=O)[C@@H](CCCNC(=N)N)NC(=O)[C@@H](CCCNC(=N)N)NC(=O)[C@@H](CCCCN)NC(=O)[C@@H](CCCCN)NC(=O)[C@@H](N)CCCNC(=N)N)C(=O)N[C@@H](CCC(=O)O)C(=O)N[C@@H](CO)C(=O)N[C@@H](CC(=O)O)C(=O)N[C@H](C(=O)O)C(C)C [NoNO 411, RkkrrQrRrIESDV] (HELM PEPTIDE1{R.[dK].[dK].[dR].[dR].Q.[dR].R.[dR].I.E.S.D.V}$$$$V2.0; N-terminus and C-terminus assumed)
plasmin resistance [4]: resistance to plasmin

Compound: CC[C@H](C)[C@H](NC(=O)[C@H](CCCNC(=N)N)NC(=O)[C@@H](CCCNC(=N)N)NC(=O)[C@@H](CCCNC(=N)N)NC(=O)[C@H](CCC(N)=O)NC(=O)[C@@H](CCCNC(=N)N)NC(=O)[C@H](CCCNC(=N)N)NC(=O)[C@@H](CCCCN)NC(=O)[C@H](CCCCN)NC(=O)[C@@H](N)CCCNC(=N)N)C(=O)N[C@@H](CCC(=O)O)C(=O)N[C@@H](CO)C(=O)N[C@@H](CC(=O)O)C(=O)N[C@H](C(=O)O)C(C)C [NoNO 414, RKkRrQrrRIESDV] (HELM PEPTIDE1{R.K.[dK].R.[dR].Q.[dR].[dR].R.I.E.S.D.V}$$$$V2.0)
plasmin resistance [4]: resistance to plasmin

Compound: CC[C@H](C)[C@H](NC(=O)[C@H](CCCNC(=N)N)NC(=O)[C@H](CCCNC(=N)N)NC(=O)[C@@H](CCCNC(=N)N)NC(=O)[C@H](CCC(N)=O)NC(=O)[C@@H](CCCNC(=N)N)NC(=O)[C@H](CCCNC(=N)N)NC(=O)[C@H](CCCCN)NC(=O)[C@H](CCCCN)NC(=O)[C@H](N)CCCNC(=N)N)C(=O)N[C@@H](CCC(=O)O)C(=O)N[C@@H](CO)C(=O)N[C@@H](CC(=O)O)C(=O)N[C@H](C(=O)O)C(C)C [NoNO 415, rKKRrQrRRIESDV] (HELM PEPTIDE1{[dR].K.K.R.[dR].Q.[dR].R.R.I.E.S.D.V}$$$$V2.0)
plasmin resistance [4]: resistance to plasmin

Compound: N#Cc1cc(NC(=O)C(=O)O)c(Cl)c(NC(=O)C(=O)O)c1 [lodoxamide, 2-[2-chloro-5-cyano-3-(oxaloamino)anilino]-2-oxoacetic acid, reference compound]
effect on histamine induced by D-Tat-L-2B9C at 7.6 mg/kg IV [5]: abrogated

Compound: O=C([O-])c1ccccc1.[Na+] [sodium benzoate, reference compound]
effect on creatinine and BUN levels induced by 25 mg/kg NA-3 [6]: reduces the creatinine and BUN levels

not cleaved [7]: no degradation observed in 45 minutes
Compound: RKkRrQrrRIESDV

Compound: RkkrrQrRrIESDV (HELM PEPTIDE1{R.[dK].[dK].[dR].[dR].Q.[dR].R.[dR].I.E.S.D.V}$$$$V2.0; N-terminus and C-terminus assumed; SMILES CC[C@H](C)[C@H](NC(=O)[C@@H](CCCNC(=N)N)NC(=O)[C@H](CCCNC(=N)N)NC(=O)[C@@H](CCCNC(=N)N)NC(=O)[C@H](CCC(N)=O)NC(=O)[C@@H](CCCNC(=N)N)NC(=O)[C@@H](CCCNC(=N)N)NC(=O)[C@@H](CCCCN)NC(=O)[C@@H](CCCCN)NC(=O)[C@@H](N)CCCNC(=N)N)C(=O)N[C@@H](CCC(=O)O)C(=O)N[C@@H](CO)C(=O)N[C@@H](CC(=O)O)C(=O)N[C@H](C(=O)O)C(C)C)
not cleaved [7]: no degradation observed in 45 minutes

Compound: YGRKkRRqRRrKLSSIESDV (YGRK[dK]RR[dQ]RR[dR]KLSSIESDV)
not cleaved [8]: essentially 100% intact peptide after 30 minutes

Compound: YGrKKRrQRRrKLSSIESDV (YG[dR]KKR[dR]QRR[dR]KLSSIESDV)
not cleaved [8]: essentially 100% intact peptide after 30 minutes

Compound: YGrKKRrQrRRkLSSIESDV (YG[dR]KKR[dR]Q[dR]RR[dK]LSSIESDV)
not cleaved [8]: essentially 100% intact peptide after 30 minutes

not cleaved [7]: no degradation observed in 45 minutes
Compound: rKKRrQrRRIESDV
